Laboratory results from the NIST ThermoML archive (doi:10.1016/j.jct.2014.07.003).

Experiments:
[1] = mn = molality of the nth substance listed, in mol/kg; conditions: 99 kPa, Liquid, Alternating current cell with electrodes
[2] = 99 kPa, Liquid, Alternating current cell with electrodes

CCCC[N+](CCCC)(CCCC)CCCC.[Br-] [tetrabutylammonium bromide] + O
[1], m1 = 0.01
Conditions	electrical conductivity [S/m]
288.15 K	0.106
293.15 K	0.0894
298.15 K	0.0829
303.15 K	0.0841
308.15 K	0.083
313.15 K	0.0843
318.15 K	0.0856

CCCCC[N+](CCCCC)(CCCCC)CCCCC.[Br-] [tetrapentylammonium bromide] + O
[1], m1 = 0.01
Conditions	electrical conductivity [S/m]
288.15 K	0.0961
293.15 K	0.0898
298.15 K	0.0879
303.15 K	0.09
308.15 K	0.0897
313.15 K	0.0881
318.15 K	0.0903

O [water]
[2]
Conditions	electrical conductivity [S/m]
288.15 K	0.0005
293.15 K	0.000281
298.15 K	0.000585
303.15 K	0.000687
308.15 K	0.00057
313.15 K	0.000608
318.15 K	0.000835

O [water] + CCCCCCCCCCCC[N+](C)(C)C.[Br-]
[1], m2 = 0
Conditions	electrical conductivity [S/m]
288.15 K	0.0005
293.15 K	0.000281
298.15 K	0.000585
303.15 K	0.000687
308.15 K	0.00057
313.15 K	0.000608
318.15 K	0.000835
